“And” between values parts separate entries of the source, which are not always exact repeats. Identical values can stand only once.
Legend:
Daudi cells = experiment: Cytotoxicity assay (MTT), 72 h; type: cell-based, human; conditions: for IC50: Homo sapiens, Daudi, 72 h of treatment, MTT; for Selectivity index Daudi: IC50 of normal (BALB/3T3) vs. cancer cells (Daudi)
Procedure: (§1) Then, the tested compounds were diluted in culture medium (RPMI1640 + OptiMEM) to reach the final concentrations. Then, cells were treated for 72 h with derivatives at concentrations of […] (100 μL of each concentration per well), or with culture medium alone as a cells control or medium control.
(§2) Each compound in each concentration was tested in triplicate in a single experiment, which was repeated 3–5 times.
(§3) MTT: 20 µL MTT solution (5 mg/mL of PBS, Merck) was added to wells and plates were placed in an incubator. […] The optical density of individual samples was read at a wavelength of 570 nm using a plate reader (Synergy H4 Hybrid Reader, BioTek).

MV4-11 cells = experiment: Cytotoxicity assay (MTT), 72 h; type: cell-based, human; conditions: for IC50: Homo sapiens, MV4-11, 72 h of treatment, MTT; for Selectivity index MV4-11: IC50 of normal (BALB/3T3) vs. cancer cells (MV4-11)
Procedure: as §1, §2, §3

[1] = system: HDAC homologues (HDACs), HeLa cell extract; experiment: Fluorimetric HDACs inhibition kit (Histone Deacetylase Activity Assay, HeLa cell extract); conditions: for HDAC activity at 2 µM [%]: remaining HDACs activity at 2 µM compound; for IC50: read-out: Inhibition of HDAC homologues (HDACs) IC50
Procedure: The HDACAA kit is based on a two-step enzymatic reaction. The substrate for the reaction is a substituted peptide with an acetylated lysine residue and a bound fluorescent group. The first step of the reaction is deacetylation of the acetylated lysine side chain by the HDAC containing sample (HeLa cell extract). The second step is the cleavage of the deacetylated substrate with the developer solution and the release of the free highly fluorescent group. […] The plate was incubated at 30 °C for 30 min. Next, 10 µL of Developer Solution was added to each well and incubated at room temperature for 10 min. The fluorescence was measured with the fluorimeter plate reader (SpectraMax iD3, Molecular Devices): excitation wavelength of 360 nm and emission wavelength of 460 nm. The following concentrations were used: 0.1, 0.5, 1, and 2 µM. Each compound in each concentration was tested in triplicate. All calculations were performed using Origin 9.0 software.

HDAC8 = biological target: T1, HDAC8 (Homo sapiens, UniProt Q9BY41); experiment: Histone Deacetylase 8 Activity Assay; type: biochemical; conditions: read-out: Inhibition of HDAC8 activity IC50
T1 construct: purchased Sigma
T1 sequence (Q9BY41 1-377): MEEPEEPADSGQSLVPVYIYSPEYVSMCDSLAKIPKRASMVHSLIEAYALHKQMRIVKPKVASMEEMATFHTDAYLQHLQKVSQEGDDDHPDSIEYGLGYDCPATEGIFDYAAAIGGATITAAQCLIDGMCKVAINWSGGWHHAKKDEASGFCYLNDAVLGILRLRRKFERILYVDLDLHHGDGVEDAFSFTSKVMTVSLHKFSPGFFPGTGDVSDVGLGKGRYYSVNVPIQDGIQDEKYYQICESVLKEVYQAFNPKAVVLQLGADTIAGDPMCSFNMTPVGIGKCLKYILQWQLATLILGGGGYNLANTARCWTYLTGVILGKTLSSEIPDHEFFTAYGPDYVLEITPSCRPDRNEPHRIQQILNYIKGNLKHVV
Procedure: In order to measure histone deacetylase 8 activity, Histone Deacetylase 8 Activity Assay (Sigma) was used. The HDAC8 acts with the supplied Developer to deacetylate and then cleave the HDAC8 Substrate (R-H-K(Ac)-K(Ac)-AFC). The reaction reagents were added to the wells of a 96-well plate according to Table 7. […] The fluorescence was measured with the fluorimeter plate reader: excitation wave-length of 380 nm and emission wavelength of 500 nm. The following concentrations were used: 0.5, 1, 1.5, 2, 3, and 4 µM. Each compound in each concentration was tested in triplicate. All calculations were performed using Origin 9.0 software.

A549 cells = experiment: Cytotoxicity assay (SRB), 72 h; type: cell-based, human; conditions: for IC50: Homo sapiens, A549, 72 h of treatment, SRB; for Selectivity index A549: IC50 of normal (BALB/3T3) vs. cancer cells (A549)
Procedure: as §1, §2
(§4) SRB: 50 µL 50% cold trichloroacetic acid (TCA, Merck) solution was added to each wells and incubated for 1 h at 4 °C. The plates were rinsed with distilled water, and after drying on a paper towel, 50 µL of a 0.1% (w/v) solution of sulforodamine B (Merck) in 1% acetic acid (POCH, Poland) was added and incubated for 30 min at room temperature. Subsequently, the plates were washed with 1% (v/v) acetic acid and after desiccation of excess acid, 150 µL of 10 mM TRIS (Merck) was added. After another 30 min of incubation at RT, the optical density of individual samples was read at 540 nm using a plate reader (Synergy H4 Hybrid Reader, BioTek).

MCF-7 cells = experiment: Cytotoxicity assay (SRB), 72 h; type: cell-based, human; conditions: for IC50: Homo sapiens, MCF7, 72 h of treatment, SRB; for Selectivity index MCF-7: IC50 of normal (BALB/3T3) vs. cancer cells (MCF-7)
Procedure: as §1, §2, §4

BALB/3T3 cells = experiment: Cytotoxicity assay (SRB), 72 h; conditions: Mus musculus, BALB/3T3, 72 h, read-out: IC50 BALB/3T3
Procedure: Then, the tested compounds were diluted in culture medium (RPMI1640 + OptiMEM) to reach the final concentrations. Then, cells were treated for 72 h with derivatives at concentrations of 50, 10, 2, 0.4, and 0.008 µM (100 μL of each concentration per well), or with culture medium alone as a cells control or medium control.

SMILES: CN1C(=O)c2ccccc2N(CC(=O)NO)C(=O)c2ccccc21 [Compound 7a]
- IC50 (Daudi cells): > 50000 nM
- IC50 (MV4-11 cells): > 50000 nM
- melting point: 233 to 234 °C
- HDAC activity at 2 µM [%] [1]: 95.6 ± 1.4%

SMILES: CN1C(=O)c2ccccc2N(CCC(=O)NO)C(=O)c2ccccc21 [Compound 7b]
- IC50 (Daudi cells): > 50000 nM
- IC50 (MV4-11 cells): > 50000 nM
- melting point: 105 to 106 °C
- HDAC activity at 2 µM [%] [1]: 84.1 ± 2.3%

SMILES: CN1C(=O)c2ccccc2N(CCCC(=O)NO)C(=O)c2ccccc21 [Compound 7c]
- IC50 (Daudi cells): > 50000 nM
- IC50 (MV4-11 cells): > 50000 nM
- melting point: 190 to 191 °C
- HDAC activity at 2 µM [%] [1]: 75.4 ± 3.0%

SMILES: CN1C(=O)c2ccccc2N(CCCCC(=O)NO)C(=O)c2ccccc21 [Compound 7d]
- IC50 (Daudi cells): 9600 ± 2100 nM
- IC50 (MV4-11 cells): 7580 ± 2500 nM
- melting point: 217 to 218 °C
- HDAC activity at 2 µM [%] [1]: 64.6 ± 3.6%

SMILES: CN1C(=O)c2ccccc2N(CCCCCC(=O)NO)C(=O)c2ccccc21 [Compound 7e]
- IC50 (HDAC8): 5670 ± 640 nM
- IC50 (Daudi cells): 3030 ± 550 nM
- IC50 (MV4-11 cells): 2330 ± 640 nM
- melting point: 155 to 156 °C
- IC50 [1]: 1960 ± 105 nM
- HDAC activity at 2 µM [%] [1]: 48.7 ± 1.0%

SMILES: CN1C(=O)c2ccccc2N(CCCCCCC(=O)NO)C(=O)c2ccccc21 [Compound 7f]
- IC50 (Daudi cells): 4830 ± 1960 nM
- IC50 (MV4-11 cells): 4450 ± 340 nM
- melting point: 145 to 146 °C
- HDAC activity at 2 µM [%] [1]: 66.1 ± 4.1%

SMILES: O=C(CN1C(=O)c2ccccc2C=Cc2ccccc21)NO [Compound 7g]
- IC50 (Daudi cells): 17300 ± 6200 nM
- IC50 (MV4-11 cells): 34000 ± 750 nM
- melting point: 119 to 120 °C
- HDAC activity at 2 µM [%] [1]: 83.6 ± 4.2%

SMILES: O=C(CCN1C(=O)c2ccccc2C=Cc2ccccc21)NO [Compound 7h]
- IC50 (Daudi cells): 32600 ± 4780 nM
- IC50 (MV4-11 cells): > 50000 nM
- melting point: 173 to 174 °C
- HDAC activity at 2 µM [%] [1]: 87.5 ± 1.2%

SMILES: O=C(CCCN1C(=O)c2ccccc2C=Cc2ccccc21)NO [Compound 7i]
- IC50 (Daudi cells): > 50000 nM
- IC50 (MV4-11 cells): > 50000 nM
- melting point: 172 to 173 °C
- HDAC activity at 2 µM [%] [1]: 90.4 ± 1.6%

SMILES: O=C(CCCCN1C(=O)c2ccccc2C=Cc2ccccc21)NO [Compound 7j]
- IC50 (Daudi cells): 3470 ± 660 nM
- IC50 (MV4-11 cells): 5300 ± 1360 nM
- melting point: 175 to 176 °C
- HDAC activity at 2 µM [%] [1]: 63.3 ± 0.5%

SMILES: O=C(CCCCCN1C(=O)c2ccccc2C=Cc2ccccc21)NO [Compound 7k]
- IC50 (HDAC8): 3370 ± 330 nM
- IC50 (Daudi cells): 460 ± 122 nM
- Selectivity index Daudi (Daudi cells): 2.78
- IC50 (MV4-11 cells): 220 ± 21 nM
- Selectivity index MV4-11 (MV4-11 cells): 5.82
- IC50 (A549 cells): 1270 ± 420 nM
- Selectivity index A549 (A549 cells): 1.01
- IC50 (MCF-7 cells): 618 ± 95 nM
- Selectivity index MCF-7 (MCF-7 cells): 2.07
- IC50 (BALB/3T3 cells): 1280 ± 150 nM
- IC50 [1]: 183 ± 15 nM
- HDAC activity at 2 µM [%] [1]: 15.7 ± 1.3%

SMILES: O=C(CCCCCCN1C(=O)c2ccccc2C=Cc2ccccc21)NO [Compound 7l]
- IC50 (Daudi cells): 1440 ± 610 nM
- IC50 (MV4-11 cells): 1570 ± 120 nM
- melting point: 151 to 152 °C
- IC50 [1]: 1240 ± 155 nM
- HDAC activity at 2 µM [%] [1]: 44.7 ± 4.4%

SMILES: CN1C(=O)c2ccccc2C(=O)N(CCCCCC(=O)NO)c2ccccc21 [Compound 7m]
- IC50 (Daudi cells): 5090 ± 300 nM
- IC50 (MV4-11 cells): 4450 ± 960 nM
- melting point: 95 to 96 °C
- HDAC activity at 2 µM [%] [1]: 72.7 ± 5.2%

SMILES: CN1C(=O)c2cc(Cl)c(Cl)cc2C(=O)N(CCCCCC(=O)NO)c2ccccc21 [Compound 7n]
- IC50 (Daudi cells): 2560 ± 980 nM
- IC50 (MV4-11 cells): 2850 ± 340 nM
- melting point: 104 to 105 °C
- HDAC activity at 2 µM [%] [1]: 68.3 ± 2.8%

SMILES: O=C(CCCCCN1C(=O)c2ccccc2C(=O)N(Cc2ccccc2)c2ccccc21)NO [Compound 7o]
- IC50 (Daudi cells): 3520 ± 800 nM
- IC50 (MV4-11 cells): 3550 ± 750 nM
- melting point: 172 to 173 °C
- HDAC activity at 2 µM [%] [1]: 64.5 ± 2.1%

SMILES: O=C(CCCCCN1C(=O)c2ccccc2CCc2ccccc21)NO [Compound 7p]
- IC50 (HDAC8): 3140 ± 420 nM
- IC50 (Daudi cells): 318 ± 98 nM
- Selectivity index Daudi (Daudi cells): 3.27
- IC50 (MV4-11 cells): 200 ± 73 nM
- Selectivity index MV4-11 (MV4-11 cells): 5.20
- IC50 (A549 cells): 1210 ± 240 nM
- Selectivity index A549 (A549 cells): 0.86
- IC50 (MCF-7 cells): 661 ± 120 nM
- Selectivity index MCF-7 (MCF-7 cells): 1.57
- melting point: 164 to 165 °C
- IC50 (BALB/3T3 cells): 1040 ± 280 nM
- IC50 [1]: 309 ± 35 nM
- HDAC activity at 2 µM [%] [1]: 21.5 ± 1.6%

SMILES: CN1C(=O)c2cc(Br)ccc2N(CCCCCC(=O)NO)C(=O)c2ccccc21 [Compound 7r]
- IC50 (Daudi cells): 785 ± 246 nM
- Selectivity index Daudi (Daudi cells): 4.29
- IC50 (MV4-11 cells): 603 ± 132 nM
- Selectivity index MV4-11 (MV4-11 cells): 5.59
- IC50 (A549 cells): 4610 ± 380 nM
- Selectivity index A549 (A549 cells): 0.73
- IC50 (MCF-7 cells): 2720 ± 570 nM
- Selectivity index MCF-7 (MCF-7 cells): 1.24
- melting point: 76 to 77 °C
- IC50 (BALB/3T3 cells): 3370 ± 870 nM
- IC50 [1]: 875 nM and 914 nM
- HDAC activity at 2 µM [%] [1]: 31.5 ± 7.1%

SMILES: COc1cc2c(cc1OC)N(CCCCCC(=O)NO)C(=O)c1ccccc1N(C)C2=O [Compound 7s]
- IC50 (Daudi cells): 944 ± 167 nM
- Selectivity index Daudi (Daudi cells): 12.75
- IC50 (MV4-11 cells): 692 ± 110 nM
- Selectivity index MV4-11 (MV4-11 cells): 17.4
- IC50 (A549 cells): 18000 ± 5770 nM
- Selectivity index A549 (A549 cells): 0.67
- IC50 (MCF-7 cells): 4240 ± 1030 nM
- Selectivity index MCF-7 (MCF-7 cells): 2.84
- melting point: 82 to 83 °C
- IC50 (BALB/3T3 cells): 12000 ± 5900 nM
- IC50 [1]: 914 nM and 875 nM
- HDAC activity at 2 µM [%] [1]: 35.9 ± 0.8%

SMILES: CN1C(=O)c2cc3ccccc3cc2N(CCCCCC(=O)NO)C(=O)c2cc(Cl)ccc21 [Compound 7t]
- IC50 (HDAC8): 1950 ± 170 nM
- IC50 (Daudi cells): 137 ± 40 nM
- Selectivity index Daudi (Daudi cells): 5.04
- IC50 (MV4-11 cells): 93 ± 9 nM
- Selectivity index MV4-11 (MV4-11 cells): 7.42
- IC50 (A549 cells): 1050 ± 70 nM
- Selectivity index A549 (A549 cells): 0.66
- IC50 (MCF-7 cells): 368 ± 15 nM
- Selectivity index MCF-7 (MCF-7 cells): 1.88
- melting point: 161 to 162 °C
- IC50 (BALB/3T3 cells): 690 ± 50 nM
- IC50 [1]: 266 ± 14 nM
- HDAC activity at 2 µM [%] [1]: 19.9 ± 1.6%

Source: article PMC8470702 (Pharmaceuticals, 2021)
